Test system: épidermes reconstruits d'Episkin
Assay: Maturation of the cornified envelope: count of mature envelopes (involucrin immunolabelling / Nile Red) after 7 days of treatment of reconstructed epidermis
Type: cell-based
Details: 168 h; C-glycoside 2,5% (p/v) alone; 30µl at J7, J9, J10, J13; read-out J14; read-out: augmentation du taux d'enveloppes cornées matures par rapport au témoin eau (Moy)
Text: Les épidermes reconstruits d'Episkin ont été utilisés pour évaluer l'impact de molécules sur la maturation de l'enveloppe cornée.
Les Episkin J7 ont été cultivés avec le carraghénane et les associations carraghénane + C-BETA-D-XYLOPYRANOSIDE-2-HYDROXY-PROPANE (HYDROXYPROPYL TETRAHYDROPYRANTRIOL) pendant 7 jours. Après isolement du stratum, les enveloppes cornées sont extraites.
Trois types d'enveloppes cornées, matures, intermédiaires et immatures sont identifiés et comptées par un logiciel d'analyse d'image développé spécifiquement. […]
Les lames immunomarquées sont visionnées sous microscope (DM6000B Leica) suivant 2 modes d'observation : contraste de phase et fluorescence.
Le contraste de phase fournit une image en niveau de gris nous permettant de visualiser l'ensemble des cellules présentes dans le champ. Le mode fluorescence (jeu de filtercube) est utilisé pour visualiser les fluorochromes fixées à l'échantillon : • Le Nile Red est une sonde fluorescente permettant de localiser les zones hydrophobes plus particulièrement les lipides. […]

CC(O)C[C@@H]1OC[C@@H](O)[C@H](O)[C@H]1O (stereo partly drawn) [C-glycoside, C-β-D-xylopyranoside-2-hydroxy-propane]
activation at 25000 µg/mL: 22%
